Reference: ChEMBL document CHEMBL1157539, “Thousands of chemical starting points for antimalarial lead identification” (Nature, 2010)

tested on: Plasmodium falciparum; assay: GSK_TCMDC: Inhibition of Plasmodium falciparum 3D7 in whole erythrocytes, using parasite LDH activity as an index of growth.; type: functional, organism-based; conditions: Plasmodium falciparum, 3D7

Row | Compound | XC50 [nM]
1 | CC(CNC(=N)c1cccc(C(=N)NCC(C)Oc2cccc(C3CCCCC3)c2)n1)Oc1cccc(C2CCCCC2)c1 (centres undefined) | 917
2 | O=C(Nc1ccc(Cl)cc1)c1cc(Cl)cc2nc(C(F)(F)F)[nH]c12 | 131
3 | CC(C)CNCc1ccc(-c2ccc(CN(C(=O)NCCc3ccccc3)C3CCN(Cc4ccccc4)CC3)cc2)cc1 | 699
4 | FC(F)(F)c1ccc2c(NCCCNc3ccnc4cc(C(F)(F)F)ccc34)ccnc2c1 | 31.5
5 | Cc1ccc(O)cc1Nc1ccnc2cc(-c3ccccc3)ccc12 | 1070
6 | N#Cc1ccc(C=CC(=O)NC2CCC(CCN3CCc4ccc(-c5cnccn5)cc4CC3)CC2)cc1 (centres undefined) | 613
7 | N#Cc1cccc(NC(=O)Nc2ccc(-c3csc(-c4nc5ccccc5[nH]4)c3)cc2)c1 | 152
8 | Cc1ccc(C[C@@H](C)NC[C@H](O)c2cccc(C(F)(F)F)c2)cc1 | 876
9 | COc1cc(-c2cc3cc(Cl)c(Cl)cc3[nH]2)ccc1C(=O)NC1CCN(Cc2ccccc2)CC1 | 531
10 | C=C[C@]1(C)C[C@@H](OC(=O)NC(=O)CCCS(=O)(=O)c2nnc(C)s2)[C@]2(C)[C@H](C)CC[C@]3(CCC(=O)[C@H]32)[C@@H](C)[C@@H]1O | 31.5
11 | Cc1ccc(C(C)C)cc1CON1C(=N)N=C(N)NC1(C)C | 3.2
12 | O=C(NCCCN1CCCCC1)c1ccc(Nc2nccc(Nc3ccc(Oc4ccccc4)cc3)n2)cc1 | 626
13 | Cc1cc(NC(=O)NCCN2CCC(NC(=O)c3ccc(Cl)cc3)CC2)c2ccccc2n1 | 381
14 | O=C(/C=C/c1ccc(Cl)c(Cl)c1)NCCCCCN1CCCC(c2c[nH]c3ccccc23)C1 (centres undefined) | 812
15 | CN(C(=O)c1ccc(Br)cc1)c1ccccc1[N+](=O)[O-] | 926
16 | CC1CN(c2cnn(Cc3ccc(NC(=O)Nc4cccc(C(F)(F)F)c4)cc3)c(=O)c2Cl)CC(C)N1 (centres undefined) | 940
17 | CC(C)c1ccc(O)cc1Nc1ccnc2ccc(C(F)(F)F)cc12 | 675
18 | CC(C)CNCc1cccc(-c2cccc(CN(CCCN3CCN(C)CC3)C(=O)/C=C/c3ccccc3)c2)c1 | 926
19 | O=C(Cn1c(CCc2cccc(F)c2F)nc(=O)c2cccnc21)N(Cc1ccc(-c2ccc(C(F)(F)F)cc2)cc1)C1CCN(C2CCSCC2)CC1 | 230
20 | O=C(c1cccc(-c2cccc(-c3nc4cc(F)ccc4[nH]3)c2)c1)N1CCCCC1CN1CCC(O)C1 (centres undefined) | 882
21 | COc1cc(NC(=O)/C=C/c2cccc3cc[nH]c23)ccc1OCCN(C(C)C)C(C)C | 270
22 | CC(C)Cn1c(N)cc(=O)n(C)c1=O | 978
23 | CCOC(=O)c1ccc(NC(=O)Nc2ccc(-c3cccc(-c4nc5cccc(C)c5[nH]4)c3)cc2)cc1 | 145

Row | Compound | XC50 [nM]
24 | COc1ccccc1-c1cccc(Nc2c(Nc3ccc(Cl)cc3)c(=O)c2=O)c1 | 878
25 | CN(CCC(CCN1CCC(c2c[nH]c3ccccc23)CC1)c1ccccc1)C(=O)Nc1ccc(Cl)c(Cl)c1 (centres undefined) | 1190
26 | CN1CCCN(Cc2ccc(-c3cccc(NC(=O)c4ccc(C#N)cc4)c3)cc2)CC1 | 744
27 | COc1ccc(-c2csc3ncnc(Cl)c23)cc1 | 781
28 | Cc1nc2ccc3ccc(CNc4ccc5c(c4)CN([C@@H](CCC(=O)O)C(=O)O)C5=O)cc3c2c(=O)[nH]1 [OSI-7904] | 164
29 | CC(C)c1ccc(NC(=O)NCC2CCCN(CCCCCNC(=O)/C=C/c3ccc(Cl)c(Cl)c3)C2)cc1 (centres undefined) | 806
30 | O=C(Nc1cccc(CN2CCCN(Cc3ncc[nH]3)CC2)c1)c1ccc(Cl)c(Cl)c1 | 795
31 | CN(C)CCN1CCN(CCCN2c3ccccc3Sc3ccc(C(F)(F)F)cc32)CC1 | 762
32 | CCOC(=O)c1ccc2[nH]c(-c3ccc(C(=O)NC4CCN(Cc5ccccc5)CC4)s3)nc2c1 | 745
33 | O=C(/C=C/c1c(Cl)cccc1Cl)NC1CCC(CN2C3CCC2CC(c2c[nH]c4ccccc24)C3)CC1 (centres undefined) | 844
34 | Cc1cc(=NN=Cc2cccc(F)c2)c2cccc(C)c2[nH]1 | 770
35 | Cc1nc(-c2cccc(C(=O)N(Cc3cncn3Cc3cccc(C(F)(F)F)c3)CC3CC3)c2)cs1 | 941
36 | COc1ccc(O)c(C(=O)NCCc2ccc(OC)c(-c3ccc(C(C)(C)C)cc3)c2)c1 | 1030
37 | N=C(N)c1cccc(OCCCOc2cccc(NC(=O)Nc3ccc([N+](=O)[O-])cc3)c2)c1 | 862
38 | Cc1cc(N2CCOCC2)nc(Nc2ccc(NC(=O)c3cccc4ccccc34)cc2)n1 | 1300
39 | O=C(Nc1ccc(Cl)cc1)Nc1ccc(-c2cccc(-c3nc4cc(F)ccc4[nH]3)c2)cc1 | 292
40 | O=C(/C=C/c1ccc(Cl)cc1)NCCCCCN1CCCN(C(=O)Nc2ccc(F)c(Cl)c2)CC1 | 781
41 | O=c1[nH]ccc2nc(N[C@@H]3CCNC3)nc(Nc3cccc(S(=O)(=O)N4CCOCC4)c3)c12 | 1230
42 | CCN(CCCN1CCCCC1)c1cc(C)nc(Nc2cc(F)cc(F)c2)n1 | 570
43 | NC12CC3CC(CC(C3)C1)C2 [AMANTADINE] | 164
44 | Cc1ccc(NC(=N)Nc2ncccc2OCc2c(F)cccc2Cl)cc1 | 1190
45 | Cc1ccc2nc(-c3ccc(/C=C/C(=O)NC4CCN(Cc5ccccc5)CC4)cc3)[nH]c2c1C | 632
46 | COc1cc(C(F)(F)F)nc2c(CNCCCNc3cc(=O)c4ccccc4[nH]3)scc12 | 1180

Row | Compound | XC50 [nM]
47 | COc1ccc2c(NN=Cc3cccc(F)c3)ccnc2c1 | 207
48 | C=C(C)Cn1cc(C2CCN(CCCCNC(=O)c3sc(-c4ccc(Cl)cc4Cl)nc3CO)CC2)c2ccccc21 | 1150
49 | CCNC(=O)Nc1cccc(-c2cccc(-c3nc4cccc(C)c4[nH]3)c2)c1 | 1040
50 | COc1cc(N)c(Cl)cc1C(=O)NC1CCC(NCC2CCCCC2)CC1 (centres undefined) | 426
51 | CCOc1cc(CC)ccc1C1CCN(CCN2CCC(NC(=O)c3ccc(-c4ccc(C#N)cc4)cc3)CC2)CC1 | 610
52 | CC1=C(C(=O)Nc2ccc(Cl)cc2)C(c2ccncc2)n2nc(C(F)(F)F)nc2N1 (centres undefined) | 935
53 | COc1ccc2[nH]ccc(=NN=Cc3cccc(F)c3)c2c1 | 750
54 | Cc1cc(CNC(=O)c2ccc(-c3ccc(-c4nc5cc(C(F)(F)F)ccc5[nH]4)s3)cc2)on1 | 732
55 | CN(CC(=O)Nc1cc(C(F)(F)F)ccc1-n1cncn1)Cc1ccc2ccccc2c1 | 232
56 | COc1ccc(CNC2CCN(C)CC2)cc1-c1ccc(S(=O)(=O)NCc2ccccc2)c(F)c1 | 800
57 | CCNc1cc(C(=O)N[C@@H](Cc2ccc(F)c(F)c2)[C@H](O)CNCc2cccc(OC)c2)cc(N2CCCCS2(=O)=O)c1 | 749
58 | N#Cc1ccc2c(c1)CCN(CCC1CCC(NC(=O)/C=C/c3ccc4[nH]ccc4c3)CC1)CC2 (centres undefined) | 1060
59 | Cc1cccc2c(CON3C(N)=NC(N)=NC3(C)C)cccc12 | 3.2
60 | CC(CCCC(=O)Nc1ccc(CC(C)NCCc2cccc(Cl)c2)cc1)NCCc1cccc(Cl)c1 (centres undefined) | 625
61 | CCOc1ccc2c(=NN=Cc3cccc(F)c3)cc(C)[nH]c2c1 | 714
62 | CCc1nc(N)nc(N)c1-c1ccc(F)cc1 | 407
63 | CN1CCN(c2ccnc3ccc(NC(=O)Nc4ccc(-c5ccncc5)c5ccccc45)cc23)CC1 | 312
64 | CN1CC=C(C=Cc2c[nH]c3ccccc23)CC1 | 1340
65 | COc1ccccc1NC(=O)Nc1cccc(-c2cccc(-c3nc4cc(C(F)(F)F)ccc4[nH]3)c2)c1 | 120
66 | N#Cc1cncc(-c2nc3c(N4CCC(Cc5ccccc5)CC4)cccc3n2C2CCNC2)c1 (centres undefined) | 987
67 | COc1ccc(C=NN=c2cc(C)[nH]c3ccc(C)cc23)c2ccccc12 | 864
68 | COc1cc(NCCCNC(=O)c2ccc(Cl)c(Cl)c2)nc2ccccc12 | 137
69 | Cc1[nH]c2ccccc2c1C1=CCN(CCCCC2(C)C(=O)Nc3ccccc32)CC1 (centres undefined) | 232
